What was measured:
Format in all cases: cell-based, human
RPE cells [1] = assay: Proliferation of RPE cells by cell counting; details: 100-400 ng/ml
Procedure: (§1) FIG. 11. GRAND editing mediates precise large insertion in non-dividing cells. a, The proliferation of RPE cells at 6 h, 12 h, 24 h, 48 h after treated with 1 or 2.5 μM Palbociclib, or 100, 200, 400 ng/mL Nocodazole was determined by cell counting. b, The cell cycles of RPE cells were determined by propidium iodide staining. c, Detection of the nascent DNA synthesis in RPE cells by 5-ethynyl-2′-deoxyuridine (EdU) incorporation assay. The proportions of EdU-labeled positive cells were determined by flow cytometry. d, A 100 bp DNA fragment was inserted at EGFP (595-647) site in non-dividing RPE cells using GRAND editing. The accurate editing and imperfect events were quantified by deep sequencing. Mean±s.d. of n=3 independent biological replicates for a, b, d, and n=3-5 independent biological replicates for c.
(§2) To determine whether GRAND editing-mediated targeted insertion is cell cycle independent, we used small molecule drugs to arrest the cell cycle of human retinal pigment epithelium (RPE) cell line. Palbociclib, a Cdk4 and Cdk6 inhibitor, effectively arrests cells in G1 phase. […] Next, we conducted the GRAND editing on RPE cells with Palbociclib or Nocodazole treatment.

RPE cells [2] = assay: EdU incorporation assay of nascent DNA synthesis in RPE cells
Procedure: as §1, §2

RPE cells [3] = assay: Cell cycle of RPE cells, propidium iodide staining, flow cytometry
Procedure: as §1, §2

Structure (SMILES): COC(=O)Nc1nc2ccc(C(=O)c3cccs3)cc2[nH]1 [Nocodazole]
- growth of RPE cells (RPE cells [1]): fully inhibited
- global DNA replication (EdU incorporation) (RPE cells [2]; at 24-48 hours): near fully inhibited replication
- global DNA replication (EdU incorporation) (RPE cells [2]; at 12 hours): significantly suppressed global DNA replication
- cell cycle arrest (RPE cells [3]): arrest at G2 phase

Source: patent publication US20240247257A1, “SYSTEM AND METHODS FOR INSERTION AND EDITING OF LARGE NUCLEIC ACID FRAGMENTS” (WUHAN UNIVERSITY, priority 2021, published 2024)
